#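 Dose response: 5 concentrations. Exposure: 48 h. Format: 96-well plates. Endpoint: linear interpolation; highest concentration if not reached. GI50 marks 50% less growth. TGI marks complete inhibition of growth.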
# Columns and labels:
# Assay in all cases: DTP human tumour cell line panel, 48 h
# HCT-116 colon = test system: HCT-116 colon
# T-47D breast = test system: T-47D breast
# HOP-62 NSCLC = test system: HOP-62 NSCLC
# IGROV1 ovarian = test system: IGROV1 ovarian
# SNB-75 CNS = test system: SNB-75 CNS
# U251 CNS = test system: U251 CNS
# OVCAR-8 ovarian = test system: OVCAR-8 ovarian
# EKVX NSCLC = test system: EKVX NSCLC
SMILES,GI50 (HCT-116 colon),TGI (HCT-116 colon),GI50 (T-47D breast),TGI (T-47D breast),GI50 (HOP-62 NSCLC),TGI (HOP-62 NSCLC),GI50 (IGROV1 ovarian),TGI (IGROV1 ovarian),GI50 (SNB-75 CNS),TGI (SNB-75 CNS),GI50 (U251 CNS),TGI (U251 CNS),GI50 (OVCAR-8 ovarian),TGI (OVCAR-8 ovarian),GI50 (EKVX NSCLC),TGI (EKVX NSCLC)
Cn1cc(-c2cnc3ccc(NC(=O)Nc4ccc(F)c(Br)c4)cc3n2)cn1,1.87 µM,3.75 µM,0.631 µM,2.27 µM,1.8 µM,3.84 µM,1.6 µM,3.49 µM,1.97 µM,4.8 µM,1.76 µM,3.88 µM,1.83 µM,4.34 µM,2.55 µM,7.96 µM
O=C(O)CCCCC(CCSCc1ccccc1)SCc1ccccc1 (centres undefined),37.7 µM,> 100 µM,44 µM,> 100 µM,68.6 µM,> 100 µM,42.4 µM,> 100 µM,> 100 µM,> 100 µM,47.9 µM,> 100 µM,> 63.6 µM,> 100 µM,40.3 µM,> 100 µM
CCOc1cccc(/C=N/NC(=O)c2ccccc2Nc2ccnc(C(F)(F)F)c2)c1O,0.336 µM,> 51.9 µM,0.582 µM,37.5 µM,0.901 µM,> 53.8 µM,0.0425 µM,0.243 µM,2.09 µM,> 77.9 µM,0.375 µM,> 100 µM,0.449 µM,> 100 µM,0.404 µM,> 100 µM
Cc1nc2cccc([N+](=O)[O-])c2c(NCCCN(C)C)c1C,,59 µM,,> 100 µM,,> 69.2 µM,,> 100 µM,,> 100 µM,,> 100 µM,,> 54.7 µM,,> 31.6 µM
O=C(O)Cn1ccc(=O)c2ccc([N+](=O)[O-])cc21,,> 100 µM,,> 100 µM,,> 100 µM,,> 100 µM,,> 100 µM,,> 100 µM,,> 100 µM,,
O=C1NNC=Nc2ccc(cc2)S(=O)(=O)c2ccc(cc2)N=CNNC1=O,,> 100 µM,,> 100 µM,,> 100 µM,,> 100 µM,,,,> 100 µM,,> 100 µM,,> 100 µM
N#C/C(=C1C=C/C(=N/O)C(Br)=C/1)c1ccccc1,0.362 µM,2.13 µM,2.19 µM,20.6 µM,2.25 µM,13 µM,2.16 µM,12.2 µM,3.42 µM,22.6 µM,2.44 µM,8.01 µM,2.61 µM,8.41 µM,,
CCc1c(Oc2ccc(C(C)=O)cc2)c2ccccc2[nH]c1=O,18.5 µM,52.8 µM,4.07 µM,24.6 µM,20.4 µM,74.3 µM,28.8 µM,> 100 µM,> 26.9 µM,> 100 µM,19.2 µM,> 82 µM,19.1 µM,53.4 µM,9.65 µM,> 66 µM
N#Cc1ccc(C#Cc2ccccc2C#CCCCCO)cc1,12.7 µM,25.3 µM,13 µM,28 µM,11.7 µM,24 µM,13.6 µM,27.6 µM,42.2 µM,> 100 µM,14.5 µM,27.5 µM,18.6 µM,35.5 µM,17.9 µM,35.3 µM
COc1ccc(C2=NN(C(=O)c3cc(OC)c(OC)c(OC)c3)C(c3ccc(C#N)cc3)C2)cc1OC (centres undefined),1.63 µM,> 44.2 µM,3.64 µM,97.6 µM,1.53 µM,36.9 µM,1.18 µM,18.9 µM,0.586 µM,19.9 µM,1.18 µM,> 34.6 µM,3.26 µM,> 42.7 µM,4.59 µM,> 100 µM
COc1cc(OC)cc(-c2ccc(-c3ccc(C(=N)N)o3)o2)c1,2.51 µM,6.11 µM,2.08 µM,5.04 µM,5.65 µM,19.1 µM,2.97 µM,10.4 µM,2.2 µM,13.8 µM,2.45 µM,5.91 µM,3.75 µM,14 µM,5.09 µM,18.5 µM
COc1cnc2cc(C(=O)O)c3c([N+](=O)[O-])cccc3c2c1,,> 100 µM,,> 100 µM,,> 100 µM,,> 100 µM,,> 100 µM,,> 100 µM,,> 100 µM,,> 100 µM
O=[N+]([O-])/C=C\c1ccc(Cl)c(Cl)c1,,,2.82 µM,13.9 µM,2.88 µM,9.57 µM,0.602 µM,2.02 µM,4.47 µM,17.5 µM,0.916 µM,2.14 µM,1.94 µM,4.16 µM,4.01 µM,17.5 µM
COc1cc2c3c(n(C)c(=O)c2cc1OC)-c1cc2c(cc1/C3=C\CCCN1C(=O)c3ccccc3C1=O)OCO2,26.2 µM,> 40 µM,> 40 µM,> 40 µM,19.2 µM,> 40 µM,,,27.8 µM,> 40 µM,12.8 µM,> 40 µM,23.8 µM,> 40 µM,5.2 µM,> 40 µM
CCOC(=O)CCc1cc(=O)oc2cc(O)cc(O)c12,,> 100 µM,,> 100 µM,,> 100 µM,,> 100 µM,,> 100 µM,,> 100 µM,,> 100 µM,,> 100 µM
O=C(Nc1ccc(N2CCNCC2)cc1)c1[nH]ncc1Nc1cc(Oc2ccccc2)ncn1,1.42 µM,2.99 µM,2.46 µM,8.09 µM,2.24 µM,6.05 µM,3 µM,11.3 µM,2.45 µM,5.6 µM,2.12 µM,10.5 µM,2.91 µM,12.2 µM,1.99 µM,6.79 µM
CC1=C(C(=O)Nc2ccc3[nH]ncc3c2)C(c2ccc3ccccc3c2)CC(=O)N1 (centres undefined),14.1 µM,> 25 µM,> 25 µM,> 25 µM,6.46 µM,> 25 µM,8.08 µM,> 25 µM,1.54 µM,> 20.1 µM,> 25 µM,> 25 µM,> 25 µM,> 25 µM,> 17.9 µM,> 25 µM
